The numbers were not newly measured in US20060165789A1, “Lercanidipine modified release compositions” (Forest Laboratories, Inc., priority 2004, published 2006), which cites them from elsewhere.

Series [1] has as its system dihyropyridine subunit of the L-type calcium channel.
The next series deals with Caco2 cell. Conditions: Caco2 cell apparatus.
For series [2] the following is noted: pH 5.
The target in series [3] is cytochrome P450 3A4 isoenzyme (Homo sapiens, UniProt P08684). Conditions: extensive presystemic first pass elimination in patients.
cytochrome P450 3A4 isoenzyme, sequence (P08684 whole entry): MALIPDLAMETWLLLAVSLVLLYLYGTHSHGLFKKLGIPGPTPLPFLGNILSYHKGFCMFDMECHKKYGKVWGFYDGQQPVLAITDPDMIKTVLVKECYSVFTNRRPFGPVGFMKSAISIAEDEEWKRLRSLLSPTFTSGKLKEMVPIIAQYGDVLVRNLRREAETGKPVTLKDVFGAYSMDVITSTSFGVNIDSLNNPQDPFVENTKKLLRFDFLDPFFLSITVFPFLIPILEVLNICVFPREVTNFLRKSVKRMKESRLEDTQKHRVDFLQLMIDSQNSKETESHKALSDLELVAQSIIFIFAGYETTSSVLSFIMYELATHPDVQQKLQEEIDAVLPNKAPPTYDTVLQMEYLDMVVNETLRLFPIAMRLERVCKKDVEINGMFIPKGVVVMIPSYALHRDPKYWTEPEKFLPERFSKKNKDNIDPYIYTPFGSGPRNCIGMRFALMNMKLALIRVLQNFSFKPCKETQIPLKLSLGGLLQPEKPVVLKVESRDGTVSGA
The conditions of series [4]: for time of maximum concentration (Tmax): form (I) and form (II) compared.

SMILES strings stand for the structures.

For `COC(=O)C1=C(C)NC(C)=C(C(=O)OC(C)(C)CN(C)CCC(c2ccccc2)c2ccccc2)C1c1cccc([N+](=O)[O-])c1.Cl` (stereo not shown) [Lercanidipine, methyl 1,1,N-trimethyl-N-(3,3-diphenylpropyl)-2-aminoethyl 1,4-dihydro-2,6-dimethyl-4-(3-nitrophenyl)pyridine-3,5-dicarboxylate], the “affinity for L-type calcium channel” value in series [1] is “high affinity”. Also, the Papp – broadly, the rate of passage across a membrane or cell layer, normalised by area and donor concentration – in the series with Caco2 cell is 0.05 ×10⁻⁶ cm/s. In series [2], the “solubility in acidic medium” value is recorded as “less than 20 μg/ml”. The “increase of amount of lercanidipine absorbed with food” value (in vivo) is “between three and four times”. Also, the “time of peak plasma level following dosage” value (oral administration) was 1 to 3 h. In addition, the “cytochrome P450 3A4 substrate” value in series [3] was “substrate for cytochrome P450 3A4 isoenzyme”.

Take `COC(=O)C1=C(C)NC(C)=C(C(=O)OC(C)(C)CN(C)CCC(c2ccccc2)c2ccccc2)C1c1cccc([N+](=O)[O-])c1` (stereo not shown) [form (II)]: in series [4], the “time of maximum concentration (Tmax)” value is recorded as “delayed time of maximum concentration”. Further, in series [4] (form (II) compared to Form (I)), the bioavailability entry is reported as “higher bioavailability” and the “systemic exposure (AUCo-t)” value is “slightly higher systemic exposure”.

On to `COC(=O)C1=C(C)NC(C)=C(C(=O)OC(C)(C)CN(C)CCC(c2ccccc2)c2ccccc2)C1c1cccc([N+](=O)[O-])c1` (stereo not shown) [form (I)], for which the “time of maximum concentration (Tmax)” value in series [4] is reported as “shorter time to maximum concentration”.
